Laboratory results from paper PMC10823475, “Design, Synthesis, and Evaluation of Inhibitors of Hedgehog Acyltransferase” (Journal of Medicinal Chemistry, 2024).
Where two headings read alike, the source gives them in different places.

Experiments:
[1] = MTS assay, cytotoxicity (72 h); format: cell-based; settings: human, HEK293a SHH+ cells, 72 h; for CC50 at 72 h: read-out: MTS Assay (HEK293a SHH+) CC50 (CI95)
In short: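 Cells plated at 5000/well, cultured 24 h, then exposed to analogues (0.14–100 μM final) in DMEM/10% FBS for 72 h. MTS/PMS added for 3 h at 37 °C and absorbance read at 490 nm; data normalised to DMSO vehicle and puromycin (2 μg/mL) wells, curves fitted with a variable-slope sigmoidal model.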

[2] = test system: palmitoylation of SHH in HEK293a SHH+ cells; assay: Cell-based YnPal metabolic tagging assay; settings: for IC50: HEK293-A, HEK293a SHH+ cells
Procedure: We first quantified the direct impact of previously reported HHAT inhibitors on palmitoylation of SHH using a cell-based metabolic tagging assay.[27],[36] In this assay, HEK293a SHH^+ cells were incubated with varying concentrations of inhibitors in the presence of alkyne palmitic acid derivative YnPal (Figure 5A).[35] Following cell lysis and bioorthogonal derivatization of palmitoylated proteins with capture reagent azide-TAMRA-biotin (AzTB)^67 using a copper catalyzed azide–alkyne cycloaddition (CuAAC) reaction, AzTB-labeled SHH is shifted to higher apparent molecular weight in sodium dodecyl sulfate polyacrylamide gel electrophoresis (SDS-PAGE), thereby enabling quantification of acylated SHH by α-SHH immunoblotting (compound 2, 17, and 22) or fluorescence imaging (compound 24, 28, and 30; SI, Figure S5–S6).[42]
HEK293a SHH^+ cells were plated at 500,000 cells/well of a 6-well plate in a volume of 3 mL/well and cultured for 24 h as described. Cells were treated with DMSO vehicle, or RUSKI compounds in DMSO (0.016–10 μM final). After 1 h, 3 μL of YnPal (20 mM DMSO stock; 20 μM final) were added and the cells were cultured for another 6 h. Subsequently, cells were washed with PBS and lysed using PBS supplemented with 1% Triton, 0.1% SDS and Complete EDTA-free protease inhibitor cocktail (Roche Diagnostics). Cells were scraped off the plates and lysates centrifuged at 13 000g for 10 min at 4 °C to remove cell debris. Protein concentration was determined using the DC Protein Assay (Bio-Rad) following the manufacturer’s procedure.
The click reaction in cell lysate was performed as previously described.[42] Briefly, 1 μL AzTB (10 mM in DMSO, 100x), 2 μL CuSO4 (50 mM in H2O, 50x), 2 μL tris(2 carboxyethyl)phosphine hydrochloride (TCEP) (50 mM in H2O, 50×), and 1 μL tris[(1-benzyl-1H-1,2,3-triazol-4-yl)methyl]amine (TBTA, 10 mM in DMSO, 100×) were mixed. Then 6 μL of this click mixture were added to 100 μL of lysate, adjusted with lysis buffer to a protein concentration of 1 mg/mL. The click reaction was shaken at RT for 1 h. Subsequently, proteins were precipitated by adding methanol, chloroform, and water at a ratio of 2:0.5:1 to remove click reagents and excess of AzTB. The mixture was centrifuged (13 000g, 5 min at 4 °C) and the methanol and water containing top layer removed. Following the addition of an excess of methanol, the precipitated proteins were isolated by centrifugation (13 000g, 10 min at 4 °C) and washed twice with methanol. The protein pellets were air-dried and redissolved in PBS containing 0.2% SDS and 0.1 mM DTT using sonication, and adjusted to a final protein concentration of 1 mg/mL.
For enrichment of YnPal-labeled proteins, 100 μg of lysate were incubated with 30 μL of prewashed (3 × 500 μL of 0.2% SDS in PBS) Dynabeads MyOne Streptavidin C1 beads (Invitrogen) for 1 h at room temperature. Beads ware washed twice with 500 μL of 0.2% SDS in PBS and boiled for 10 min in 15 μL of PBS containing SDS-PAGE sample buffer. The entire pull-down sample and 10 μg of total lysate and supernatant fractions were loaded on a 15% SDS-PAGE gel. Fluorescence was scanned using a Typhoon imager (GE Healthcare; excitation laser: 532 nm, emission filter: LPG (575–700 nm); PMT: 750 V).
Proteins were transferred to nitrocellulose membrane using a wet transfer apparatus (100 V, 1 h). Membranes were blocked with 5% BSA in TBS-T (0.1% Tween-20, 50 mM Tris, 150 mM NaCl, pH 7.5) for 1 h at room temperature, followed by overnight incubation with SHH H-160 primary antibody (Santa Cruz Biotechnology; sc-9024; 1:200 in TBS-T + 0.5% BSA) or α-tubulin primary antibody (Santa Cruz Biotechnology; sc-8035; 1:200 in TBS-T + 0.5% BSA) at 4 °C. Membranes were washed with TBS-T and further incubated at RT for 1 h with the appropriate secondary antibody (HRP conjugated goat-antimouse IgG (H+L) or goat-antirabbit IgG (H+L); Advansta; 1:10,000 in TBS-T + 0.5% BSA). […]

[3] = PAMPA parallel artificial membrane permeability assay; settings: for recovery at 16 h, 10 µM / Papp at 16 h, 10 μM: PAMPA
Procedure: Passive diffusion was estimated using the PAMPA method. […] The donor plate was a MultiScreen-IP Plate with 0.45 μm hydrophobe Immobilon-P Membrane (Millipore, #MAIPNTR10) and the acceptor plate was a MultiScreen 96-well Transport Receiver Plate (Millipore, #MATRNPS50). […] Acceptor pH was 7.4. All samples were analyzed against an external, matrix-matched, standard curve by LC-MS/MS with a Waters (Elstree, Herts. UK) Acquity H-class LC system coupled to a Waters TQ-S mass spectrometer. Permeability values (cm/s) were calculated using the following equation: [drawing 2] and VD = volume of donor; VA = volume of acceptor; area = surface area of the membrane · porosity.

[4] = read-out: YnPal tagging IC50 (CI95)
[5] = pH 5, PAMPA Papp pH 5, donor pH 5, 10 µM
[6] = pH 5, PAMPA Permeability Class pH 5, donor pH 5, 10 µM
[7] = pH 6.5, PAMPA Papp pH 6.5, donor pH 6.5, 10 µM
[8] = pH 6.5, PAMPA Permeability Class pH 6.5, donor pH 6.5, 10 µM
[9] = pH 7.4, PAMPA Papp pH 7.4, donor pH 7.4, 10 µM
[10] = pH 7.4, PAMPA Permeability Class pH 7.4, donor pH 7.4, 10 µM

| Compound | CC50 at 72 h [1] [µM] | viability at 72 h, 12.5 µM [1] [%] | viability at 72 h, 25 µM [1] [%] | IC50 [2, 4] [µM] | recovery at 16 h, 10 µM ([3]; pH 5) [%] | Papp at 16 h, 10 μM [3, 5] [×10⁻⁶ cm/s] | Papp at 16 h, 10 μM [3, 6] [×10⁻⁶ cm/s] | recovery at 16 h, 10 µM ([3]; pH 6.5) [%] | Papp at 16 h, 10 μM [3, 7] [×10⁻⁶ cm/s] | Papp at 16 h, 10 μM [3, 8] [×10⁻⁶ cm/s] | recovery at 16 h, 10 µM ([3]; pH 7.4) [%] | Papp at 16 h, 10 μM [3, 9] [×10⁻⁶ cm/s] | Papp at 16 h, 10 μM [3, 10] [×10⁻⁶ cm/s] | PAMPA passive permeability ([3]; pH 7.4) | PAMPA permeability ([3]; over the full pH range tested) | inhibition of SHH tagging by YnPal [2] | IC50 ([2]; read-out: IC50, cellular YnPal labeling of SHH) [µM] |
| --- | --- | --- | --- | --- | --- | --- | --- | --- | --- | --- | --- | --- | --- | --- | --- | --- | --- |
| C=CCNCC(=O)N1CCc2sccc2C1COc1ccc(Cl)cc1 (centres unmarked) [Compound 2] | 35.9 | 56 ± 3 | 50 ± 2 | 2.35 | < 31 | < 1.5 | < 5 | < 10 | 10.9 | 5 to 20 | < 10 | 20.4 | > 20 | high passive permeability |  |  |  |
| CC(=O)N1CCc2sccc2C1c1ccccc1 (centres unmarked) [Compound 5] | 13.9 | 73 ± 2 | 76 ± 4 |  | 95 | > 200 | > 20 | 98 | 117 | > 20 | 91 | > 200 | > 20 | high passive permeability | high permeability |  |  |
| CCC(C)CNCC(=O)N1CCc2sccc2C1c1cccc(C)c1 (centres unmarked) [Compound 17] | 40.7 | 42 ± 3 | 55 ± 1 | 0.57 | < 31 | < 0.7 | < 5 | < 10 | < 9.7 | 5 to 20 | < 10 | < 4.5 | < 5 |  |  |  |  |
| CCC(C)CNCC(=O)N1CCc2sccc2C1c1cccc(C)n1 (centres unmarked) [Compound 22] | > 50 | 92 ± 1 | 89 ± 3 | 1.08 | < 65 | < 0.4 | < 5 | < 23 | 13 | 5 to 20 | < 15 | 42.4 | > 20 | high passive permeability |  |  |  |
| Cc1cccc(C2c3ccsc3CCN2C(=O)CNCC(C)C)n1 (centres unmarked) [Compound 24] | > 50 | 88 ± 3 | 80 ± 3 | 0.49 |  |  |  |  |  |  |  |  |  |  |  |  |  |
| Cc1cccc([C@@H]2c3ccsc3CCN2C(=O)CNCC(C)C)n1 [Compound 28] | > 100 | 108 ± 7 | 105 ± 4 | > 10 |  |  |  |  |  |  |  |  |  |  |  | inactive |  |
| Cc1cccc([C@H]2c3ccsc3CCN2C(=O)CNCC(C)C)n1 [Compound 30] | > 50 | 101 ± 6 | 98 ± 5 |  |  |  |  |  |  |  |  |  |  |  |  |  | 0.076 |
